Source: patent US10538517B2, “Quinolone derivatives as FGFR inhibitors” (Principia Biopharma, Inc., priority 2015, dated 2020)
Read-outs that look alike come from different tables or passages of the source.

System: SNU-16 cells
Test: Inhibition of FGFR2-dependent cell growth (Cell-titer Glo)
Type: cell-based
Conditions: Homo sapiens, 72 hrs incubation, cell viability, read-out: SNU16 IC50 values
Description: The cell-based effects of FGFR inhibitors were determined by measuring inhibition of FGFR-dependent cell line growth. The cell lines SNU-16 was used for these assays. […] Percent inhibition of cell growth was calculated as a percentage of untreated cell viability. The percent inhibition was plotted as a function of log compound concentration. The IC50 was then calculated for each compound using Prism software from GraphPad.

Row | Structure (SMILES) | IC50 (SNU-16, 72 h) | IC50
1 | COc1cc(OC)c(Cl)c(-c2cc3cnc(N)nc3n(CCc3cccc(NC(=O)C(C#N)=CC(C)(C)C)c3)c2=O)c1 [Cpd 50 (table 2), N-(3-(2-(2-amino-6-(2-chloro-3,5-dimethoxyphenyl)-7-oxopyrido[2,3-d]pyrimidin-8(7H)-yl)ethyl)phenyl)-2-cyano-4,4-dimethylpent-2-enamide] | 4.6 nM | 
2 | COc1cc(OC)c(Cl)c(-c2cc3cnc(NCC(C)(C)O)nc3n(CCc3cccc(NC(=O)C(C#N)=CC(C)(C)C)c3)c2=O)c1 [Cpd 52 (table 2), N-(3-(2-(6-(2-chloro-3,5-dimethoxyphenyl)-2-((2-hydroxy-2-methylpropyl)amino)-7-oxopyrido[2,3-d]pyrimidin-8(7H)-yl)ethyl)phenyl)-2-cyano-4,4-dimethylpent-2-enamide] | 15.7 nM | 
3 | CNc1ncc2cc(-c3cc(OC)cc(OC)c3Cl)c(=O)n(CCc3cnc(NC(=O)C(C#N)=CC(C)(C)C)cn3)c2n1 [Cpd 71 (table 2), N-(5-(2-(6-(2-chloro-3,5-dimethoxyphenyl)-2-(methylamino)-7-oxopyrido[2,3-d]pyrimidin-8(7H)-yl)ethyl)pyrazin-2-yl)-2-cyano-4,4-dimethylpent-2-enamide] | 79.6 nM | 
4 | CNc1ncc2cc(-c3cc(OC)cc(OC)c3Cl)c(=O)n(CCCc3ccc(C=C(C#N)C(=O)NC(C)(C)C)cc3)c2n1 [Cpd 75 (table 2), N-(tert-butyl)-3-(4-(3-(6-(2-chloro-3,5-dimethoxyphenyl)-2-(methylamino)-7-oxopyrido[2,3-d]pyrimidin-8(7H)-yl)propyl)phenyl)-2-cyanoacrylamide] | 87.2 nM | 
5 | CNc1ncc2cc(-c3cc(OC)cc(OC)c3Cl)c(=O)n(CCc3cccc(N(C)C(=O)C(C#N)=CC(C)(C)N)c3)c2n1 [Cpd 26 (table 2), 4-amino-N-(3-(2-(6-(2-chloro-3,5-dimethoxyphenyl)-2-(methylamino)-7-oxopyrido[2,3-d]pyrimidin-8(7H)-yl)ethyl)phenyl)-2-cyano-N,4-dimethylpent-2-enamide] | 56 nM | 
6 | CNc1ncc2cc(-c3cc(OC)cc(OC)c3Cl)c(=O)n(CCc3cccc(N(C)C(=O)C(C#N)=CC(C)(C)N(C)C)c3)c2n1 [Cpd 39 (table 2), N-(3-(2-(6-(2-chloro-3,5-dimethoxyphenyl)-2-(methylamino)-7-oxopyrido[2,3-d]pyrimidin-8(7H)-yl)ethyl)phenyl)-2-cyano-4-(dimethylamino)-N,4-dimethylpent-2-enamide] | 40.2 nM | 
7 | CNc1ncc2cc(-c3cc(OC)cc(OC)c3)c(=O)n(CCc3ccc(NC(=O)C(C#N)=CC(C)(C)C)cc3)c2n1 [Cpd 8 (table 2), 2-cyano-N-(4-(2-(6-(3,5-dimethoxyphenyl)-2-(methylamino)-7-oxopyrido[2,3-d]pyrimidin-8(7H)-yl)ethyl)phenyl)-4,4-dimethylpent-2-enamide] |  | 18.6 nM
8 | CNc1ncc2cc(-c3cc(OC)cc(OC)c3Cl)c(=O)n(CCc3cccc(NC(=O)C(C#N)=CC(C)(C)N)n3)c2n1 [Cpd 17 (table 2), 4-amino-N-(6-(2-(6-(2-chloro-3,5-dimethoxyphenyl)-2-(methylamino)-7-oxopyrido[2,3-d]pyrimidin-8(7H)-yl)ethyl)pyridin-2-yl)-2-cyano-4-methylpent-2-enamide] | 8.1 nM | 
9 | CNc1ncc2cc(-c3cc(OC)cc(OC)c3)c(=O)n(CCc3ccc(NC(=O)C(C#N)=CC(C)(C)N)cc3)c2n1 [Cpd 9 (table 2), 4-amino-2-cyano-N-(4-(2-(6-(3,5-dimethoxyphenyl)-2-(methylamino)-7-oxopyrido[2,3-d]pyrimidin-8(7H)-yl)ethyl)phenyl)-4-methylpent-2-enamide] |  | 29.7 nM
10 | CCN(CC)CCCCNc1ncc2cc(-c3c(Cl)c(OC)cc(OC)c3Cl)c(=O)n(CCc3ccc(NC(=O)C(C#N)=CC(C)C)cc3)c2n1 [Cpd 4 (table 2), 2-cyano-N-(4-(2-(6-(2,6-dichloro-3,5-dimethoxyphenyl)-2-((4-(diethylamino)butyl)amino)-7-oxopyrido[2,3-d]pyrimidin-8(7H)-yl)ethyl)phenyl)-4-methylpent-2-enamide] | 5.3 nM | 
11 | CNc1ncc2cc(-c3cc(OC)cc(OC)c3Cl)c(=O)n(CCc3cccc(NC(=O)C(C#N)=CC(C)(C)C)n3)c2n1 [Cpd 16 (table 2), N-(6-(2-(6-(2-chloro-3,5-dimethoxyphenyl)-2-(methylamino)-7-oxopyrido[2,3-d]pyrimidin-8(7H)-yl)ethyl)pyridin-2-yl)-2-cyano-4,4-dimethylpent-2-enamide] | 43.9 nM | 
12 | CNc1ncc2cc(-c3cc(OC)cc(OC)c3Cl)c(=O)n(CCc3ccc(NC(=O)C(C#N)=CC(C)(C)N4CCN(C5COC5)CC4)cc3)c2n1 [Cpd 61 (table 2), N-(4-(2-(6-(2-chloro-3,5-dimethoxyphenyl)-2-(methylamino)-7-oxopyrido[2,3-d]pyrimidin-8(7H)-yl)ethyl)phenyl)-2-cyano-4-methyl-4-(4-(oxetan-3-yl)piperazin-1-yl)pent-2-enamide] | 4.3 nM | 
13 | CNc1ncc2cc(-c3cc(OC)cc(OC)c3Cl)c(=O)n(CCN3C[C@@H]4CN(C(=O)C(C#N)=CC(C)(C)C)C[C@@H]4C3)c2n1 [Cpd 6 (table 1), 2-((3aR,6aS)-5-(2-(6-(2-chloro-3,5-dimethoxyphenyl)-2-(methylamino)-7-oxopyrido[2,3-d]pyrimidin-8(7H)-yl)ethyl)octahydropyrrolo[3,4-c]pyrrole-2-carbonyl)-4,4-dimethylpent-2-enenitrile] | 649 nM | 
14 | CNc1ncc2cc(-c3cc(OC)cc(OC)c3Cl)c(=O)n(CCc3csc(NC(=O)C(C#N)=CC(C)(C)C)n3)c2n1 [Cpd 67 (table 2), N-(4-(2-(6-(2-chloro-3,5-dimethoxyphenyl)-2-(methylamino)-7-oxopyrido[2,3-d]pyrimidin-8(7H)-yl)ethyl)thiazol-2-yl)-2-cyano-4,4-dimethylpent-2-enamide] | 936 nM | 
15 | CNc1ncc2cc(-c3c(Cl)c(OC)cc(OC)c3Cl)c(=O)n(CCN3CCN(C(=O)C(C#N)=CC(C)(C)C)CC3)c2n1 [Cpd 3 (table 1), 2-(4-(2-(6-(2,6-dichloro-3,5-dimethoxyphenyl)-2-(methylamino)-7-oxopyrido[2,3-d]pyrimidin-8(7H)-yl)ethyl)piperazine-1-carbonyl)-4,4-dimethylpent-2-enenitrile] | 34 nM | 
16 | COc1cc(OC)c(Cl)c(-c2cc3cnc(NCCN4CCOCC4)nc3n(CCc3ccc(NC(=O)C(C#N)=CC(C)(C)C)cc3)c2=O)c1 [Cpd 68 (table 2), N-(4-(2-(6-(2-chloro-3,5-dimethoxyphenyl)-2-((2-morpholinoethyl)amino)-7-oxopyrido[2,3-d]pyrimidin-8(7H)-yl)ethyl)phenyl)-2-cyano-4,4-dimethylpent-2-enamide] | 35.5 nM | 
17 | CNc1ncc2cc(-c3cc(OC)cc(OC)c3Cl)c(=O)n(CCc3ccc(NC(=O)C(C#N)=CC(C)(C)N)nc3)c2n1 [Cpd 21 (table 2), 4-amino-N-(5-(2-(6-(2-chloro-3,5-dimethoxyphenyl)-2-(methylamino)-7-oxopyrido[2,3-d]pyrimidin-8(7H)-yl)ethyl)pyridin-2-yl)-2-cyano-4-methylpent-2-enamide] | 33.1 nM | 
18 | CNc1ncc2cc(-c3cc(OC)cc(OC)c3Cl)c(=O)n(CCc3cccc(NC(=O)C(C#N)=CC(C)(C)N(C)C4COC4)c3)c2n1 [Cpd 43 (table 2), N-(3-(2-(6-(2-chloro-3,5-dimethoxyphenyl)-2-(methylamino)-7-oxopyrido[2,3-d]pyrimidin-8(7H)-yl)ethyl)phenyl)-2-cyano-4-methyl-4-(methyl(oxetan-3-yl)amino)pent-2-enamide] | 2.4 nM | 
19 | CNc1ncc2cc(-c3cc(OC)cc(OC)c3Cl)c(=O)n(CCc3ccc(NC(=O)C(C#N)=CC(C)(C)N4C[C@@H](C)N(C)[C@@H](C)C4)cc3)c2n1 [Cpd 60 (table 2), N-(4-(2-(6-(2-chloro-3,5-dimethoxyphenyl)-2-(methylamino)-7-oxopyrido[2,3-d]pyrimidin-8(7H)-yl)ethyl)phenyl)-2-cyano-4-methyl-4-((3S,5R)-3,4,5-trimethylpiperazin-1-yl)pent-2-enamide] | 5.6 nM | 
20 | CCN(CC)CCCCNc1ncc2cc(-c3c(Cl)c(OC)cc(OC)c3Cl)c(=O)n(Cc3cccc(NC(=O)C(C#N)=CC(C)C)c3)c2n1 [Cpd 5 (table 2), 2-cyano-N-(3-((6-(2,6-dichloro-3,5-dimethoxyphenyl)-2-((4-(diethylamino)butyl)amino)-7-oxopyrido[2,3-d]pyrimidin-8(7H)-yl)methyl)phenyl)-4-methylpent-2-enamide] | 1.5 nM | 
21 | CNc1ncc2cc(-c3cc(OC)cc(OC)c3)c(=O)n(CCc3cccc(NC(=O)C(C#N)=CC(C)(C)N)c3)c2n1 [Cpd 11 (table 2), 4-amino-2-cyano-N-(3-(2-(6-(3,5-dimethoxyphenyl)-2-(methylamino)-7-oxopyrido[2,3-d]pyrimidin-8(7H)-yl)ethyl)phenyl)-4-methylpent-2-enamide] | 73.4 nM | 
22 | CNc1ncc2cc(-c3cc(OC)cc(OC)c3Cl)c(=O)n(CCc3cccc(NC(=O)C(C#N)=CC(C)(C)N4CCC(O)CC4)c3)c2n1 [Cpd 53 (table 2), N-(3-(2-(6-(2-chloro-3,5-dimethoxyphenyl)-2-(methylamino)-7-oxopyrido[2,3-d]pyrimidin-8(7H)-yl)ethyl)phenyl)-2-cyano-4-(4-hydroxypiperidin-1-yl)-4-methylpent-2-enamide] | 5.1 nM | 
23 | CNc1ncc2cc(-c3cc(OC)cc(OC)c3Cl)c(=O)n(CCc3ccc(NC(=O)C(C#N)=CC(C)(C)N(C)C4COC4)cc3)c2n1 [Cpd 29 (table 2), N-(4-(2-(6-(2-chloro-3,5-dimethoxyphenyl)-2-(methylamino)-7-oxopyrido[2,3-d]pyrimidin-8(7H)-yl)ethyl)phenyl)-2-cyano-4-methyl-4-(methyl(oxetan-3-yl)amino)pent-2-enamide] | 1.4 nM | 
24 | CNc1ncc2cc(-c3cc(OC)cc(OC)c3Cl)c(=O)n(CCCN3CCN(C(=O)C(C#N)=CC(C)(C)C)CC3)c2n1 [Cpd 5 (table 1), 2-(4-(3-(6-(2-chloro-3,5-dimethoxyphenyl)-2-(methylamino)-7-oxopyrido[2,3-d]pyrimidin-8(7H)-yl)propyl)piperazine-1-carbonyl)-4,4-dimethylpent-2-enenitrile] | 27.2 nM | 
